Measured values published in EP0346427B1, “MACROCYCLIC COMPOUNDS” (FISONS plc, priority 1987, dated 1989).

Test system: lymphocytes
Experiment: Mixed Lymphocyte Reaction (MLR) II (Example B)
Assay type: cell-based
Details: concentration of compound required to inhibit the proliferation of lymphocytes by 50%, cells from two responding donors, 96 hours incubation, ³H-thymidine for the final 24 hours, read-out: IC₅₀
Procedure: Mixed Lymphoctye Reaction (MLR) II
The MLR test was performed in 96-well microtitre plates with each well containing 3 x 10⁵ cells from each of two responding donors in a final volume of 0.2ml RPMI 1640 medium supplemented with 10% human serum, L-glutamine and penicillin/streptomycin. The compound under test was dissolved at 10mg/ml in ethanol and further diluted in RPMI 1640. The cells were incubated at 37 °C in a humidified atmosphere of 5% carbon dioxide for 96 hours. ³H-thymidine (0.5uCi) was added for the final 24 hours of the incubation to provide a measure of proliferation.
A selection of compounds were tested according to Example B. The concentration of compound required to inhibit the proliferation of lymphocytes by 50% was measured, and the results were as follows: […]

Row | Structure (SMILES) | IC50
1 | C=CCC1C=C(C)CC(C)CC(OC)C2OC(O)(C(=O)C(=O)N3CCCCC3C(=O)OC(C(C)=CC3CCC(OC)C(OC)C3)C(C)C(OC)CC1=O)C(C)CC2OC (stereo not drawn) [Example 1, 17-Allyl-1-hydroxy-12-[2-(3,4-dimethoxycyclohexyl)-1-methylvinyl]-14,23,25-trimethoxy-13,19,21,27-tetramethyl-11,28-dioxa-4-azatricyclo[22.3.1.0^4,9]octacos-18-ene-2,3,10,16-tetraone.] | < 1000 nM
2 | C=CCC1C=C(C)CC(C)CC(OC)C2OC(O)(C(=O)C(=O)N3CCCCC3C(=O)OC(C(C)=CC3CCC(OC)C(OC)C3)C(C)C(O)CC1=O)C(C)CC2OC (stereo not drawn) [Example 2, 17-Allyl-1,14-dihydroxy-12-[2-(3,4-dimethoxycyclohexyl) -1-methylvinyl]-23,25-dimethoxy-13,19,21,27-tetramethyl-11, 28-dioxa-4-azatricyclo[22.3.1.0^4,9]octacos-18-ene-2,3,10, 16-tetraone] | < 1000 nM
3 | C=CCC1C=C(C)CC(C)CC(OC)C2OC(O)(C(C)CC2OC)C(O)C(=O)N2CCCCC2C(=O)OC(C(C)=CC2CCC(O)C(OC)C2)C(C)C(O)CC1=O (stereo not drawn) [Example 5, 17-Allyl-1,2,14-trihydroxy-12-[2-(4-hydroxy-3-methoxycyclohexyl)-1-methylvinyl]-23,25-dimethoxy-13,19,21,27-tetra methyl-11,28-dioxa-4-azatricyclo[22.3.1.0^4,9]octacos-18-ene-3,10,16-trione] | < 1000 nM
4 | C=CCC1C=C(C)CC(C)CC(OC)C2OC(O)(C(C)CC2OC)C(O)C(=O)N2CCCCC2C(=O)OC(C(C)=CC2CCC(O)C(OC)C2)C(C)C(O)CC1O (stereo not drawn) [Example 6, 17-Allyl-1,2,14,16-tetrahydroxy-12-[2-(4-hydroxy-3-methoxycyclohexyl)-1-methylvinyl]-23,25-dimethoxy-13,19,21, 27-tetramethyl-11,28-dioxa-4-azatricyclo[22.3.1.0^4,9] octacos-18-ene-3,10-dione] | < 1000 nM
5 | CCCC1C=C(C)CC(C)CC(OC)C2OC(O)(C(=O)C(=O)N3CCCCC3C(=O)OC(C(C)=CC3CCC(O)C(OC)C3)C(C)CCC1=O)C(C)CC2OC (stereo not drawn) [Example 12, 17-Propyl-1-hydroxy-12-[2-(4-hydroxy-3-methoxycyclohexyl)-1-methylvinyl]-23,25-dimethoxy-13,19,21,27-tetra methyl-11,28-dioxa-4-azatricyclo[22.3.1.0^4,9]octacos-18-ene-2,3,10,16-tetraone] | < 1000 nM
6 | C=CCC1C=C(C)CC(C)CC(OC)C2OC(O)(C(C)CC2OC)C(O)C(=O)N2CCCCC2C(=O)OC(C(C)=CC2CCC(O)C(OC)C2)C(C)CCC1=O (stereo not drawn) [Example 15, 17-Allyl-1,2-dihydroxy-12-[2-(4-hydroxy-3-methoxy-cyclohexyl)-1-methylvinyl]-23,25-dimethoxy-13,19,21,27-tetra methyl-11,28-dioxa-4-azatricyclo-[22.3.1.0^4,9]octacos-18-ene-3,10,16-trione] | < 1000 nM
7 | C=CCC1C=C(C)CC(C)CC(OC)C2OC(O)(C(=O)C(=O)N3CCCCC3C(=O)OC(C(C)=CC3CCC(O)C(OC)C3)C(C)CCC1=O)C(C)CC2OC (stereo not drawn) [Example 17, 17-Allyl-l-hydroxy-12-[2-(4-hydroxy-3-methoxycyclohexyl)-1-methylvinyl]-23,25-dimethoxy-13,19,21,27-tetramethyl-11,28-dioxa-4-azatricyclo[22.3.1.0^4,9]octacos-18-ene-2,3,10,16-tetraone] | < 1000 nM
8 | CCCC1C=C(C)CC(C)CC(OC)C2OC(O)(C(=O)C(=O)N3CCCCC3C(=O)OC(C(C)=CC3CCC(=O)C(OC)C3)C(C)CCC1=O)C(C)CC2OC (stereo not drawn) [Example 18, 17-Propyl-1-hydroxy-12-[2-(3-methoxy-4-oxocyclohexyl)-1-methylvinyl]-23,25-dimethoxy-13,19,21,27-tetramethyl-11,28-dioxa-4-azatricyclo[22.3.1.0^4,9]octacos-18-ene-2,3,10,16-tetraone.] | < 1000 nM
9 | COC1CC(C=C(C)C2OC(=O)C3CCCCN3C(=O)C(=O)C3(O)OC(C(OC)CC(C)CC(C)=Cc4ccn(CCO)c4CC(O)C2C)C(OC)CC3C)CCC1O (stereo not drawn) [Example 22, 1,14-Dihydroxy-12-[2-(4-hydroxy-3-methoxycyclohexyl)-1-methylvinyl]-26,28-dimethoxy-17-(2-hydroxyethyl)-13,22,24,30-tetramethyl-11,31-dioxa-4,17-diazatetracyclo[25.3.1.0.^4,9 .0^16,20]hentriaconta-16(20),18,21-triene-2,3,10-trione.] | < 1000 nM
10 | C=CCC1C=C(C)CC(C)CC(OC)C2OC(O)(C(=O)C(=O)N3CCCCC3C(=O)OC(C(C)=CC3CCC(OCOCCOC)C(OC)C3)C(C)C(O)CC1=O)C(C)CC2OC (stereo not drawn) [Example 27] | < 1000 nM
11 | C=CCC1C=C(C)CC(C)CC(OC)C2OC(O)(C(C)CC2OC)C2(CO2)C(=O)N2CCCCC2C(=O)OC(C(C)=CC2CCC(O)C(OC)C2)C(C)C(O)CC1=O (stereo not drawn) [Example 30, 17-Allyl-1,14-dihydroxy-12-[2-(4-hydroxy-3-methoxycyclohexyl)-1-methylvinyl]-23,25-dimethoxy-13,19,21, 27-tetramethyl-11,28-dioxa-4-aza-spiro[tricyclo [22.3.1.0^4,9]octacos-18-ene-2,2'-oxirane]-3,10,16-trione.] | < 1000 nM
12 | COC1CC(C=C(C)C2OC(=O)C3CCCCN3C(=O)C(=O)C3(O)OC(C(OC)CC(C)CC(C)=CC4=C(CC(O)C2C)OC(C[Se]c2ccccc2)C4)C(OC)CC3C)CCC1O (stereo not drawn) [Example 32, 1,14-Dihydroxy-12-[2-(4-hydroxy-3-methoxycyclohexyl)-1-methylvinyl]-26,28-dimethoxy-18-[(phenylseleno)methyl]-13, 22,24,30-tetramethyl-11,17,31-trioxa-4-azatetracyclo[25.3.1. 0.^4,90.^16,20]hentriaconta-16(20),21-diene-2,3,10-trione.] | < 1000 nM
